These results are taken from ChEMBL document CHEMBL1201862, “PubChem BioAssay data set” (2004).

Among the test systems are DMS-273; LXFL 529; DMS-114; HOP-18; DLD-1; RXF 631; SNB-78; M19-MEL; XF498.
Common to all, as to experiment: NCI-60 cell line screen, 48 h

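Each compound was tested at five concentrations against cells in 96-well plates for 48 hours. GI50 marks 50% less growth.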 Activity calls are given as the source filed them. Cut-off read from the data, not from the text of the source: active = GI50 up to about 1.1 µM and inactive = higher.

In the case of `CCCCCCc1cc(C(=O)Nc2cccc(C(F)(F)F)c2)nc(N)n1`, the GI50 in the test on DMS-273, in the test on LXFL 529, with DMS-114, in the test on HOP-18, in the test with DLD-1 and in the test on RXF 631 was > 100 µM (inactive) each time. For the same compound, the GI50 in the test with SNB-78 and in the test on M19-MEL was > 100 µM (inactive) throughout.
As to `C/C(=N\O)c1sc(-n2nc(-c3ccccc3)cc2-c2ccccc2)nc1C`, the GI50 in the test on DMS-273 is 22.5 µM (inactive); with LXFL 529, 11.7 µM (inactive); in the test on DMS-114, 12.4 µM (inactive); with HOP-18 it was > 10 µM (inactive); in the test with DLD-1 it was 11.5 µM (inactive); with RXF 631, 14.8 µM (inactive). In addition, the GI50 was 29.8 µM (inactive) in the test with SNB-78, > 10 µM (inactive) in the test with XF498 and 13.3 µM (inactive) in the test on M19-MEL.
As to `CCOC(=O)C(=O)Nc1ccc(Cl)c(C(F)(F)F)c1`, the GI50 in the test with DMS-273, with LXFL 529, in the test on DMS-114, in the test on HOP-18, with DLD-1 and with RXF 631 was > 100 µM (inactive) each time. Also, the GI50 in the test on SNB-78 and in the test with M19-MEL was > 100 µM (inactive) throughout.
For the compound `O=C1C(O)=C(CN(CCCl)CCCl)C(=O)c2ccccc21`, the GI50 was 48.3 µM (inactive) with LXFL 529; 44.3 µM (inactive) with DLD-1; 87.9 µM (inactive) in the test with RXF 631; 70.8 µM (inactive) in the test with SNB-78; > 100 µM (inactive) with XF498; 54.6 µM (inactive) with M19-MEL.
Take `COC(=O)C1=C(c2ccc3c(c2)OCO3)OC(c2ccc3c(c2)OCO3)C1` (centres undefined): the GI50 in the test with DMS-273 is > 100 µM (inactive); with LXFL 529, 38.4 µM (inactive); in the test with DMS-114, 30.1 µM (inactive); with HOP-18, 69.7 µM (inactive); in the test with DLD-1, > 100 µM (inactive); in the test on RXF 631, > 100 µM (inactive). Besides, the GI50 in the test on SNB-78, in the test with XF498 and with M19-MEL was > 100 µM (inactive) in each case.
With `O=C1c2ccccc2NC1(c1ccccc1)c1c(-c2ccccc2)[nH]c2ccccc12` (centres undefined), the GI50 with DMS-273 is 6.84 µM (inactive); with LXFL 529, 20.4 µM (inactive); with DMS-114 it was 15.3 µM (inactive); in the test with HOP-18, 44.8 µM (inactive); in the test with DLD-1 it was 9.2 µM (inactive); in the test on RXF 631, 9.73 µM (inactive). Moreover, the GI50 in the test with SNB-78 is 33.6 µM (inactive); with XF498, 44 µM (inactive); in the test on M19-MEL, 24.3 µM (inactive).
As for `COC/C=C\COC`, the GI50 with DMS-273, in the test with LXFL 529, with DMS-114, in the test on HOP-18, with DLD-1 and in the test on RXF 631 was > 100 µM (inactive) in each case. Also, the GI50 in the test with SNB-78, in the test with XF498 and in the test on M19-MEL was > 100 µM (inactive) throughout.
`CN1CCN(C)C12C=c1ccccc1=CC21CC1`: the GI50 with DMS-273 is 57 µM (inactive); in the test on LXFL 529, 17.1 µM (inactive); in the test on DMS-114, 18.2 µM (inactive); in the test with HOP-18, > 75 µM (inactive); with DLD-1 it was 26.4 µM (inactive); in the test with RXF 631 it was 53.6 µM (inactive). Besides, the GI50 was > 72.4 µM (inactive) in the test with SNB-78, 23.9 µM (inactive) in the test with XF498 and 19.3 µM (inactive) in the test on M19-MEL.
As for `CCCCCCCCCc1cc(=O)c2ccc(O)cc2o1`, the GI50 was 46.8 µM (inactive) in the test with DMS-273; 41.7 µM (inactive) in the test on LXFL 529; 11.3 µM (inactive) in the test on DMS-114; > 100 µM (inactive) in the test with HOP-18; > 100 µM (inactive) in the test with DLD-1; 46.2 µM (inactive) in the test on RXF 631. Besides, the GI50 in the test with SNB-78 was 38.9 µM (inactive); in the test with XF498, 86.5 µM (inactive); with M19-MEL it was > 100 µM (inactive).
For `O=S(=O)(O)c1cc(/N=N/c2cc(S(=O)(=O)O)c3cccnc3c2O)ccc1/C=C/c1ccc(/N=N/c2cc(S(=O)(=O)O)c3cccnc3c2O)cc1S(=O)(=O)O`, the GI50 in the test on DMS-273, in the test on LXFL 529, with DMS-114, in the test on HOP-18, in the test on DLD-1 and in the test on RXF 631 was > 100 µM (inactive) throughout. For the same compound, the GI50 in the test with SNB-78, in the test with XF498 and with M19-MEL was > 100 µM (inactive) in each case.
In the case of `C=C[C@]1(C)CCC2=C(CCC3C2(C)CCC[C@@]3(C)COC(C)=O)C1` (some centres undefined), the GI50 is 17.5 µM (inactive) in the test on LXFL 529; 22 µM (inactive) with DMS-114; 25.9 µM (inactive) in the test on HOP-18; 18.5 µM (inactive) in the test on DLD-1; 16.7 µM (inactive) in the test on RXF 631; 18.7 µM (inactive) with SNB-78. The GI50 in the test with XF498 was 19.9 µM (inactive); with M19-MEL it was 21.7 µM (inactive).
Consider `COc1cc(C2c3cc4c(cc3[C@@H](OCCN(C)C)C3COC(=O)[C@H]23)OCO4)cc(OC)c1O` (some centres undefined), for which the GI50 in the test with DMS-273 was 0.052 µM (active); in the test with LXFL 529 it was 2.79 µM (inactive); in the test on HOP-18 it was 0.42 µM (active); in the test with DLD-1, 1.03 µM (active); in the test with RXF 631 it was 0.0655 µM (active); in the test with SNB-78 it was 5.13 µM (inactive). Also, the GI50 in the test with XF498 was 0.239 µM (active).
With `COc1c(Cl)c2c(c(OC)c1OC)-c1ccc(OC)c(=O)c(Cl)c1C(NC(C)=O)CC2` (centres undefined), the GI50 in the test on DMS-273 was 0.116 µM (active); with LXFL 529, 0.243 µM (active); in the test on DMS-114 it was 0.224 µM (active); with DLD-1, 0.345 µM (active); in the test with RXF 631, 0.473 µM (active); with SNB-78, 0.36 µM (active). Besides, the results for the GI50 in the test on XF498 and with M19-MEL were 0.34 µM (active) and 0.262 µM (active), respectively.
Turning to `CC1CC2(CC[C@@H]1O)OCCO2` (some centres undefined), the GI50 in the test with DMS-273, in the test on LXFL 529, with DLD-1, in the test on RXF 631, in the test on SNB-78 and in the test with XF498 was > 100 µM (inactive) throughout. Moreover, the GI50 in the test on M19-MEL is > 100 µM (inactive).
On to `CC(C)C1=Cc2ccc3c(c2C(=O)C1=O)CCCC3`, for which the GI50 with DMS-273 was 2.21 µM (inactive); in the test on LXFL 529, 1.08 µM (active); in the test on DMS-114, 1.16 µM (inactive); with HOP-18, 3.51 µM (inactive); in the test on DLD-1, 1 µM (active); in the test with RXF 631, 9.91 µM (inactive). Besides, the GI50 in the test on SNB-78 is 4.93 µM (inactive); in the test with XF498 it was 2.15 µM (inactive); in the test with M19-MEL, 2.9 µM (inactive).
